Assay results taken from patent US8906889B2, “C-3 cycloalkenyl triterpenoids with HIV maturation inhibitory activity” (priority 2012, dated 2014).
Counter-ions that a name gives are not always drawn.

Each molecule was assayed on recombinant NL4-3 virus (Renilla luciferase, Gag P373S) (assay: HIV cell culture assay (luciferase reporter, MT-2 cells)). Conditions: Renilla, NL43, MT-2 cells infected for 4-5 days with NLRluc recombinants; luciferase activity.
Format: cell-based
Experimental: MT-2 cells and 293T cells were obtained from the NIH AIDS Research and Reference Reagent Program. MT-2 cells were propagated in RPMI 1640 media supplemented with 10% heat inactivated fetal bovine serum, […]. The 293T cells were propagated in DMEM media supplemented with 10% heat inactivated fetal bovine serum (FBS), 100 units/ml penicillin G and 100 μg/ml streptomycin. The proviral DNA clone of NL4-3 was obtained from the NIH AIDS Research and Reference Reagent Program. A recombinant NL4-3 virus, in which a section of the nef gene from NL4-3 was replaced with the Renilla luciferase gene, was used as a reference virus. In addition, residue Gag P373 was converted to P373S. Briefly, the recombinant virus was prepared by transfection of the altered proviral clone of NL4-3. Transfections were performed in 293T cells using LipofectAMINE PLUS from Invitrogen (Carlsbad, Calif.), according to manufacturer's instruction. The virus was titered in MT-2 cells using luciferase enzyme activity as a marker. Luciferase was quantitated using the Dual Luciferase kit from Promega (Madison, Wis.), with modifications to the manufacturer's protocol. The diluted Passive Lysis solution was pre-mixed with the re-suspended Luciferase Assay Reagent and the re-suspended Stop & Glo Substrate (2:1:1 ratio). Fifty (50) μL of the mixture was added to each aspirated well on assay plates and luciferase activity was measured immediately on a Wallac TriLux (Perkin-Elmer). Antiviral activities of inhibitors toward the recombinant virus were quantified by measuring luciferase activity in cells infected for 4-5 days with NLRluc recombinants in the presence serial dilutions of the inhibitor.

SMILES	EC50 [nM]
C=C(C)[C@@H]1CC[C@]2(NCCN3CCS(=O)(=O)CC3)CC[C@]3(C)[C@H](CC[C@@H]4[C@@]5(C)CC=C(C6=CCC(C(=O)O)(C(=O)O)CC6)C(C)(C)[C@@H]5CC[C@]43C)[C@@H]12 [Example 7, 4-((1R,3aS,5aR,5bR,7aR,11aS,11bR,13aR,13bR)-3a-((2-(1,1-dioxidothiomorpholino)ethyl)amino)-5a,5b,8,8,11a-pentamethyl-1-(prop-1-en-2-yl)-2,3,3a,4,5,5a,5b,6,7,7a,8,11,11a,11b,12,13,13a,13b-octadecahydro-1H-cyclopenta[a]chrysen-9-yl)cyclohex-3-ene-1,1-dicarboxylic acid, TFA]	100
CC(C)[C@@H]1CC[C@]2(NCCN3CCS(=O)(=O)CC3)CC[C@]3(C)[C@H](CC[C@@H]4[C@@]5(C)CC=C(C6=CCC(C(=O)O)CC6)C(C)(C)[C@@H]5CC[C@]43C)[C@@H]12 (stereo partly drawn) [Example 8, 4-((1S,3aS,5aR,5bR,7aR,11aS,11bR,13aR,13bR)-3a-((2-(1,1-dioxidothiomorpholino)ethyl)amino)-1-isopropyl-5a,5b,8,8,11a-pentamethyl-2,3,3a,4,5,5a,5b,6,7,7a,8,11,11a,11b,12,13,13a,13b-octadecahydro-1H-cyclopenta[a]chrysen-9-yl)cyclohex-3-enecarboxylic acid, TFA]	1.01
C=C(C)[C@@H]1CC[C@]2(NCCN3CCS(=O)(=O)CC3)CC[C@]3(C)[C@H](CC[C@@H]4[C@@]5(C)CC=C(C6=CCC(O)(C(=O)O)CC6)C(C)(C)[C@@H]5CC[C@]43C)[C@@H]12 (stereo partly drawn) [Example 11, 4-((1R,3aS,5aR,5bR,7aR,11aS,11bR,13aR,13bR)-3a-((2-(1,1-dioxidothiomorpholino)ethyl)amino)-5a,5b,8,8,11a-pentamethyl-1-(prop-1-en-2-yl)-2,3,3a,4,5,5a,5b,6,7,7a,8,11,11a,11b,12,13,13a,13b-octadecahydro-1H-cyclopenta[a]chrysen-9-yl)-1-hydroxycyclohex-3-enecarboxylic acid, TFA]	1.99
C=C(C)[C@@H]1CC[C@]2(NCCN3CCN(S(C)(=O)=O)CC3)CC[C@]3(C)[C@H](CC[C@@H]4[C@@]5(C)CC=C(C6=CCC(C(=O)O)CC6)C(C)(C)[C@@H]5CC[C@]43C)[C@@H]12 (stereo partly drawn) [Example 12, 4-((1R,3aS,5aR,5bR,7aR,11aS,11bR,13aR,13bR)-5a,5b,8,8,11a-pentamethyl-3a-((2-(4-(methylsulfonyl)piperazin-1-yl)ethyl)amino)-1-(prop-1-en-2-yl)-2,3,3a,4,5,5a,5b,6,7,7a,8,11,11a,11b,12,13,13a,13b-octadecahydro-1H-cyclopenta[a]chrysen-9-yl)cyclohex-3-enecarboxylic acid, TFA]	3.03
C=C(C)[C@@H]1CC[C@]2(NCCN3CCC(S(C)(=O)=O)CC3)CC[C@]3(C)[C@H](CC[C@@H]4[C@@]5(C)CC=C(C6=CCC(C(=O)O)CC6)C(C)(C)[C@@H]5CC[C@]43C)[C@@H]12 (stereo partly drawn) [Example 13, 4-((1R,3aS,5aR,5bR,7aR,11aS,11bR,13aR,13bR)-5a,5b,8,8,11a-pentamethyl-3a-((2-(4-(methylsulfonyl)piperidin-1-yl)ethyl)amino)-1-(prop-1-en-2-yl)-2,3,3a,4,5,5a,5b,6,7,7a,8,11,11a,11b,12,13,13a,13b-octadecahydro-1H-cyclopenta[a]chrysen-9-yl)cyclohex-3-enecarboxylic acid, TFA]	0.975
C=C(C)[C@@H]1CC[C@]2(NCCN3CCOCC3)CC[C@]3(C)[C@H](CC[C@@H]4[C@@]5(C)CC=C(C6=CCC(C(=O)O)CC6)C(C)(C)[C@@H]5CC[C@]43C)[C@@H]12 (stereo partly drawn) [Example 14, 4-((1R,3aS,5aR,5bR,7aR,11aS,11bR,13aR,13bR)-5a,5b,8,8,11a-pentamethyl-3a-((2-morpholinoethyl)amino)-1-(prop-1-en-2-yl)-2,3,3a,4,5,5a,5b,6,7,7a,8,11,11a,11b,12,13,13a,13b-octadecahydro-1H-cyclopenta[a]chrysen-9-yl)cyclohex-3-enecarboxylic acid, TFA]	5.61
C=C(C)[C@@H]1CC[C@]2(NCCN3CCC(S(C)(=O)=O)CC3)CC[C@]3(C)[C@H](CC[C@@H]4[C@@]5(C)CC=C(C6=CC[C@H](C(=O)O)CC6)C(C)(C)[C@@H]5CC[C@]43C)[C@@H]12 [Example 15, (R)-4-((1R,3aS,5aR,5bR,7aR,11aS,11bR,13aR,13bR)-5a,5b,8,8,11a-pentamethyl-3a-((2-(4-(methylsulfonyl)piperidin-1-yl)ethyl)amino)-1-(prop-1-en-2-yl)-2,3,3a,4,5,5a,5b,6,7,7a,8,11,11a,11b,12,13,13a,13b-octadecahydro-1H-cyclopenta[a]chrysen-9-yl)cyclohex-3-enecarboxylic acid, TFA]	1.36
C=C(C)[C@@H]1CC[C@]2(NCCN3CCC(S(C)(=O)=O)CC3)CC[C@]3(C)[C@H](CC[C@@H]4[C@@]5(C)CC=C(C6=CC[C@@H](C(=O)O)CC6)C(C)(C)[C@@H]5CC[C@]43C)[C@@H]12 [Example 16, (S)-4-((1R,3aS,5aR,5bR,7aR,11aS,11bR,13aR,13bR)-5a,5b,8,8,11a-pentamethyl-3a-((2-(4-(methylsulfonyl)piperidin-1-yl)ethyl)amino)-1-(prop-1-en-2-yl)-2,3,3a,4,5,5a,5b,6,7,7a,8,11,11a,11b,12,13,13a,13b-octadecahydro-1H-cyclopenta[a]chrysen-9-yl)cyclohex-3-enecarboxylic acid, TFA]	3.05
C=C(C)[C@@H]1CC[C@]2(N)CC[C@]3(C)[C@H](CC[C@@H]4[C@@]5(C)CC=C(C6=CCC(C(=O)O)CC6)C(C)(C)[C@@H]5CC[C@]43C)[C@@H]12 (stereo partly drawn) [Example 17, 4-((1R,3aS,5aR,5bR,7aR,11aS,11bR,13aR,13bR)-3a-amino-5a,5b,8,8,11a-pentamethyl-1-(prop-1-en-2-yl)-2,3,3a,4,5,5a,5b,6,7,7a,8,11,11a,11b,12,13,13a,13b-octadecahydro-1H-cyclopenta[a]chrysen-9-yl)cyclohex-3-enecarboxylic acid, HCl]	0.877
C=C(C)[C@@H]1CC[C@]2(NCCO)CC[C@]3(C)[C@H](CC[C@@H]4[C@@]5(C)CC=C(C6=CCC(C(=O)O)CC6)C(C)(C)[C@@H]5CC[C@]43C)[C@@H]12 (stereo partly drawn) [Example 18, 4-((1R,3aS,5aR,5bR,7aR,11aS,11bR,13aR,13bR)-3a-((2-hydroxyethyl)amino)-5a,5b,8,8,11a-pentamethyl-1-(prop-1-en-2-yl)-2,3,3a,4,5,5a,5b,6,7,7a,8,11,11a,11b,12,13,13a,13b-octadecahydro-1H-cyclopenta[a]chrysen-9-yl)cyclohex-3-enecarboxylic acid, TFA]	1.38
C=C(C)[C@@H]1CC[C@]2(NCCO)CC[C@]3(C)[C@H](CC[C@@H]4[C@@]5(C)CC=C(C6=CC[C@H](C(=O)O)CC6)C(C)(C)[C@@H]5CC[C@]43C)[C@@H]12 [Example 19, (R)-4-((1R,3aS,5aR,5bR,7aR,11aS,11bR,13aR,13bR)-3a-((2-hydroxyethyl)amino)-5a,5b,8,8,11a-pentamethyl-1-(prop-1-en-2-yl)-2,3,3a,4,5,5a,5b,6,7,7a,8,11,11a,11b,12,13,13a,13b-octadecahydro-1H-cyclopenta[a]chrysen-9-yl)cyclohex-3-enecarboxylic acid, TFA]	1.14
C=C(C)[C@@H]1CC[C@]2(NCCO)CC[C@]3(C)[C@H](CC[C@@H]4[C@@]5(C)CC=C(C6=CC[C@@H](C(=O)O)CC6)C(C)(C)[C@@H]5CC[C@]43C)[C@@H]12 [Example 20, (S)-4-((1R,3aS,5aR,5bR,7aR,11aS,11bR,13aR,13bR)-3a-((2-hydroxyethyl)amino)-5a,5b,8,8,11a-pentamethyl-1-(prop-1-en-2-yl)-2,3,3a,4,5,5a,5b,6,7,7a,8,11,11a,11b,12,13,13a,13b-octadecahydro-1H-cyclopenta[a]chrysen-9-yl)cyclohex-3-enecarboxylic acid, TFA]	1.57
C=C(C)[C@@H]1CC[C@]2(NCCN3CCS(=O)(=O)CC3)CC[C@]3(C)[C@H](CC[C@@H]4[C@@]5(C)CC=C(C6=CCC(C(=O)NS(C)(=O)=O)CC6)C(C)(C)[C@@H]5CC[C@]43C)[C@@H]12 (stereo partly drawn) [Example 21, 4-((1R,3aS,5aR,5bR,7aR,11aS,11bR,13aR,13bR)-3a-((2-(1,1-dioxidothiomorpholino)ethyl)amino)-5a,5b,8,8,11a-pentamethyl-1-(prop-1-en-2-yl)-2,3,3a,4,5,5a,5b,6,7,7a,8,11,11a,11b,12,13,13a,13b-octadecahydro-1H-cyclopenta[a]chrysen-9-yl)-N-(methylsulfonyl)cyclohex-3-enecarboxamide, TFA]	1.8
